# Measured values taken from the kinase profiling compilation of Christmann-Franck et al. (2016).
# Assays:
# Test in all cases: split-luciferase competition binding
# [1] = biological target: PRKCE (human) (UniProt Q02156); settings: compound 10.0 µM
# [2] = biological target: SGK3 (human) (UniProt Q96BR1); settings: compound 10.0 µM
# [3] = biological target: PRKCH (human) (UniProt P24723); settings: compound 10.0 µM
# [4] = biological target: RPS6KA3 KD1 (human) (UniProt P51812); settings: compound 10.0 µM
# RPS6KA3 KD1 (human), sequence (P51812 whole entry, looked up): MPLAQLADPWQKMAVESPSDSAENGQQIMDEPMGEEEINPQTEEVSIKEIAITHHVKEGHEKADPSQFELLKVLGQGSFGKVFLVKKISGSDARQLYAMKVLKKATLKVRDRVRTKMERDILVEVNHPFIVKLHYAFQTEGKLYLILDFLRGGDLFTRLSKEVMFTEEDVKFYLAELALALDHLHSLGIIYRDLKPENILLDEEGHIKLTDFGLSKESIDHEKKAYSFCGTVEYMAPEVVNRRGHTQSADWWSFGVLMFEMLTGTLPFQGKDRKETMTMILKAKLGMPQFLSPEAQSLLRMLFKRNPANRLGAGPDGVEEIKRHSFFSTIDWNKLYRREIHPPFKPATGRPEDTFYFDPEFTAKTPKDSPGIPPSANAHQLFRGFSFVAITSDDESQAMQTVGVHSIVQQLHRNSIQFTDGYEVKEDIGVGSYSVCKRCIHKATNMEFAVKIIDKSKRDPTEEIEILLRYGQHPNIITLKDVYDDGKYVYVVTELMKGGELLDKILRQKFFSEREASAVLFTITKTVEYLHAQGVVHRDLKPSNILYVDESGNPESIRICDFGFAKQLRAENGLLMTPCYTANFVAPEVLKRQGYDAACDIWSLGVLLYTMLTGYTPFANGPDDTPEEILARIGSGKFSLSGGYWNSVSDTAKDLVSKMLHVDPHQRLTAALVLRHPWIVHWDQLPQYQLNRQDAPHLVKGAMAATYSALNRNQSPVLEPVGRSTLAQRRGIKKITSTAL
# [5] = biological target: PRKACB (human) (UniProt P22694); settings: compound 10.0 µM
# [6] = biological target: RPS6KA4 KD1 (human) (UniProt O75676); settings: compound 10.0 µM
# [7] = biological target: PRKX (human) (UniProt P51817); settings: compound 10.0 µM
# [8] = biological target: RPS6KA2 KD1 (human) (UniProt Q15349); settings: compound 10.0 µM
# [9] = biological target: AKT2 (human) (UniProt P31751); settings: compound 10.0 µM
# [10] = biological target: RPS6KA1 KD1 (human) (UniProt Q15418); settings: compound 10.0 µM
# [11] = biological target: AURKC (human) (UniProt Q9UQB9); settings: compound 10.0 µM
# AURKC (human), sequence (Q9UQB9 whole entry, looked up): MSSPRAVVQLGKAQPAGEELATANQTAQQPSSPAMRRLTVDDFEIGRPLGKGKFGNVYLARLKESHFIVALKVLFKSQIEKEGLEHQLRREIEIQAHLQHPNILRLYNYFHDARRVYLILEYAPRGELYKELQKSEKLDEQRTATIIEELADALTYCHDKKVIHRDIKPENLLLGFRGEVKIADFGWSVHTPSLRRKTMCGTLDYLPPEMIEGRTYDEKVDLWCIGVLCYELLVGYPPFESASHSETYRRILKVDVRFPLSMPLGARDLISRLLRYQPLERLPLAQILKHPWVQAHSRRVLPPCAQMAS
# [12] = biological target: PRKCQ (human) (UniProt Q04759); settings: compound 10.0 µM
# [13] = biological target: RPS6KA6 KD1 (human) (UniProt Q9UK32); settings: compound 10.0 µM
# RPS6KA6 KD1 (human), sequence (Q9UK32 whole entry, looked up): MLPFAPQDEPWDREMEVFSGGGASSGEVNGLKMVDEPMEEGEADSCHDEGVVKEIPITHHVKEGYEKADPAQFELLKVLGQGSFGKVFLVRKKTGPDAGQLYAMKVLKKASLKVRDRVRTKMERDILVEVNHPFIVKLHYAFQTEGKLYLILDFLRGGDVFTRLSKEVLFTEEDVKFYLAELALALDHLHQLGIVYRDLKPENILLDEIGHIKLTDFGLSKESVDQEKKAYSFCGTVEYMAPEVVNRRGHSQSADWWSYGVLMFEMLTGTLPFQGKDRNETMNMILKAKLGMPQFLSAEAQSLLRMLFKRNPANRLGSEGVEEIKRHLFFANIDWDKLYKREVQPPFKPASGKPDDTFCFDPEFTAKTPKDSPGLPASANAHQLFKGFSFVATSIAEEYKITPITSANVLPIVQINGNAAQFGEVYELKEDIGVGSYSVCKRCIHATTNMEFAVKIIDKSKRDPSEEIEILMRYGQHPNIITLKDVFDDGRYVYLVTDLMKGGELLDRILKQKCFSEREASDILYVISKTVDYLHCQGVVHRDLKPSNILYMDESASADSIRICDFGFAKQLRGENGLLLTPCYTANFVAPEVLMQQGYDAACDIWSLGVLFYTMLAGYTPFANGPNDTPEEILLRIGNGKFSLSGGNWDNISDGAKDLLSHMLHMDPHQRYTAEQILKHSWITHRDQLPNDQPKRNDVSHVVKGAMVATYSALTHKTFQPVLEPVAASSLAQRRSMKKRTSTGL
# [14] = biological target: PDPK1 (human) (UniProt O15530); settings: compound 10.0 µM
# [15] = test system: PRKACA (mouse); settings: compound 10.0 µM; accession and sequence are those of the human protein
# [16] = biological target: PRKCD (human) (UniProt Q05655); settings: compound 10.0 µM
# [17] = biological target: AURKB (human) (UniProt Q96GD4); settings: compound 10.0 µM
# [18] = biological target: SGK2 (human) (UniProt Q9HBY8); settings: compound 10.0 µM
# SGK2 (human), sequence (Q9HBY8 whole entry, looked up): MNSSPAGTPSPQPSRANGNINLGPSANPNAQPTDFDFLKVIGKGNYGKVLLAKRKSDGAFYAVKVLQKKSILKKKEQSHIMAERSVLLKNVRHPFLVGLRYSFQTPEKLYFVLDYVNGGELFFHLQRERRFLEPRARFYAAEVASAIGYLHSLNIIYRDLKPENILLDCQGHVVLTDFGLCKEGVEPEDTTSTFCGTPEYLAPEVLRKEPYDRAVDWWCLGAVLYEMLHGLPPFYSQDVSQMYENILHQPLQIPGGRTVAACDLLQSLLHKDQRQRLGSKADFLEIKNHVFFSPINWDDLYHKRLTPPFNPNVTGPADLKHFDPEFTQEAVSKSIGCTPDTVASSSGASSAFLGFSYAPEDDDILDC
# [19] = biological target: RPS6KA5 KD1 (human) (UniProt O75582); settings: compound 10.0 µM
# [20] = biological target: PRKCG (human) (UniProt P05129); settings: compound 10.0 µM
# [21] = biological target: PKN1 (human) (UniProt Q16512); settings: compound 10.0 µM
# [22] = biological target: PRKCI (human) (UniProt P41743); settings: compound 10.0 µM
# [23] = biological target: AURKA (human) (UniProt O14965); settings: compound 10.0 µM
# AURKA (human), sequence (O14965 whole entry, looked up): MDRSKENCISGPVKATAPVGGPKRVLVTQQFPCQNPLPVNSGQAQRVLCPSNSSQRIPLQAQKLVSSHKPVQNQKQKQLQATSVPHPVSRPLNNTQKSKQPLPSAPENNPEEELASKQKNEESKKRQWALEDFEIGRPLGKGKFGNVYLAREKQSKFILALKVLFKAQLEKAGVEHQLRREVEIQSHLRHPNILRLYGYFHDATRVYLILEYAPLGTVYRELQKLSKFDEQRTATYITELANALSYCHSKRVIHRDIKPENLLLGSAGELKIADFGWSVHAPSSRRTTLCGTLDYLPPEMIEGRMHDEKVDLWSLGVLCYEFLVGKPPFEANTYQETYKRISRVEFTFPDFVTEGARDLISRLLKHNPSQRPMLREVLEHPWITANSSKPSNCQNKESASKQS
# [24] = biological target: STK32B (human) (UniProt Q9NY57); settings: compound 10.0 µM
# STK32B (human), sequence (Q9NY57 whole entry, looked up): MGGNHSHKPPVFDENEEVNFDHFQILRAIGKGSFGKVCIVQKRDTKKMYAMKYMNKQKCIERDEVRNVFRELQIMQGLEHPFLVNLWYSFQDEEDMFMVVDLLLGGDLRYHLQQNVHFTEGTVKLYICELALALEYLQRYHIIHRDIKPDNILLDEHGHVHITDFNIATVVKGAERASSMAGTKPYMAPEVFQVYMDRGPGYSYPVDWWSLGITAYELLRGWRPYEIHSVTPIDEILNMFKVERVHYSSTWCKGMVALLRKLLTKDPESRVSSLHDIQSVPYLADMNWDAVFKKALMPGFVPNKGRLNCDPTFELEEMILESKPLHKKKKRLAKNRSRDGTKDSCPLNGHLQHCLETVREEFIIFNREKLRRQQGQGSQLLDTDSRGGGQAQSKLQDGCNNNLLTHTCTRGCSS
# [25] = biological target: AKT1 (human) (UniProt P31749); settings: compound 10.0 µM
# [26] = biological target: AKT3 (human) (UniProt Q9Y243); settings: compound 10.0 µM
# [27] = biological target: DMPK (human) (UniProt Q09013); settings: compound 10.0 µM
# DMPK (human), sequence (Q09013 whole entry, looked up): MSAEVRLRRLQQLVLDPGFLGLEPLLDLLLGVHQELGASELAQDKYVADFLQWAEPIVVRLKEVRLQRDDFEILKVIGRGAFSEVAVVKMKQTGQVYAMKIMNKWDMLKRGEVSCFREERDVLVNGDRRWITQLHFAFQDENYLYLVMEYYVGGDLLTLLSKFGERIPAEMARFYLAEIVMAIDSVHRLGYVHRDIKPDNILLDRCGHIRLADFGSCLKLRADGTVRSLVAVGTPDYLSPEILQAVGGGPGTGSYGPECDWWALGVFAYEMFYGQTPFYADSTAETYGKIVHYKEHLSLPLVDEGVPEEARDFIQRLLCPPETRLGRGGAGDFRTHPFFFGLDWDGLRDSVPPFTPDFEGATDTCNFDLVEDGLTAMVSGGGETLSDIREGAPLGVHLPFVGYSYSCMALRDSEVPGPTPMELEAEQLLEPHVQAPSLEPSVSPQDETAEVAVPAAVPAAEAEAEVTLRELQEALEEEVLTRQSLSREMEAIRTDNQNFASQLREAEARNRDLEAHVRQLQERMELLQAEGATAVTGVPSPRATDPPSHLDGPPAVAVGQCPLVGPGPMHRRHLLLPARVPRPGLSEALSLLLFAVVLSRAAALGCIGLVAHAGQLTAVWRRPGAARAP
# SGK3 (human), sequence (Q96BR1 whole entry, looked up): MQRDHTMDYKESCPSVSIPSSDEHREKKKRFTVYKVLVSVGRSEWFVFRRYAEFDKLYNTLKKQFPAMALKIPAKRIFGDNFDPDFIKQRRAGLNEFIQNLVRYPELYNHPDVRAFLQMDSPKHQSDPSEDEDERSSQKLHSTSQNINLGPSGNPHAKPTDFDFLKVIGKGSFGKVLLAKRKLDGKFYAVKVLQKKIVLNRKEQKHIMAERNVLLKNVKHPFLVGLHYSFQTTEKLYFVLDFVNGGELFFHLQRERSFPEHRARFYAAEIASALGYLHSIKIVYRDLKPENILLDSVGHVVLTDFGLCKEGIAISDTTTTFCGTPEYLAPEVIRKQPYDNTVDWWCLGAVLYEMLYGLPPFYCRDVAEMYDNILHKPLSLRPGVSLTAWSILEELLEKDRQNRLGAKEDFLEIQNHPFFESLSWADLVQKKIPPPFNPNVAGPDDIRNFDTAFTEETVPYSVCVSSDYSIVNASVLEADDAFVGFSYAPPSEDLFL
Structure (SMILES),inhibition [1],inhibition [2],inhibition [3],inhibition [4],inhibition [5],inhibition [6],inhibition [7],inhibition [8],inhibition [9],inhibition [10],inhibition [11],inhibition [12],inhibition [13],inhibition [14],inhibition [15],inhibition [16],inhibition [17],inhibition [18],inhibition [19],inhibition [20],other results
COc1cc2ncnc(Nc3ccc(F)c(Cl)c3)c2cc1OCCCN1CCOCC1,7%,3%,0%,0%,0%,0%,7%,0%,0%,0%,19%,2%,0%,2%,1%,0%,27%,0%,0%,9%,inhibition [21]: 0%; inhibition [22]: 0%; inhibition [23]: 0%; inhibition [24]: 0%; inhibition [25]: 0%; inhibition [26]: 0%; inhibition [27]: 13%
COc1ccc(Cl)cc1NC(=O)Nc1cc(C)nc2ccccc12,0%,0%,0%,0%,0%,0%,1%,0%,0%,0%,16%,0%,0%,0%,5%,0%,14%,0%,3%,0%,inhibition [21]: 0%; inhibition [22]: 0%; inhibition [23]: 0%; inhibition [24]: 0%; inhibition [25]: 0%; inhibition [26]: 0%; inhibition [27]: 6%
NC(=O)c1ccc(-c2nc(-c3ccccn3)c(-c3ccc4c(c3)OCCO4)[nH]2)cc1,1%,1%,0%,0%,3%,0%,0%,0%,0%,0%,2%,1%,5%,0%,0%,0%,0%,3%,2%,0%,inhibition [21]: 0%; inhibition [22]: 1%; inhibition [23]: 0%; inhibition [24]: 0%; inhibition [25]: 2%; inhibition [26]: 0%; inhibition [27]: 7%
O=C1NC(=O)c2c1c1c3ccccc3[nH]c1c1[nH]c3ccccc3c21,25%,81%,65%,23%,20%,55%,62%,42%,0%,51%,35%,45%,36%,22%,27%,17%,50%,70%,47%,7%,inhibition [21]: 0%; inhibition [22]: 0%; inhibition [23]: 1%; inhibition [24]: 9%; inhibition [25]: 22%; inhibition [26]: 0%; inhibition [27]: 30%
O=C1NC(=O)C(c2ccccc2[N+](=O)[O-])=C1Nc1ccc(O)c(Cl)c1,4%,0%,2%,0%,5%,0%,2%,0%,0%,7%,23%,0%,9%,0%,0%,9%,12%,0%,0%,0%,inhibition [21]: 0%; inhibition [22]: 0%; inhibition [23]: 6%; inhibition [24]: 0%; inhibition [25]: 0%; inhibition [26]: 0%; inhibition [27]: 0%
CC1=C(O)C(=O)[C@@H]2OC2C1=O (stereo partly drawn),0%,1%,7%,0%,0%,0%,0%,0%,0%,5%,0%,0%,5%,2%,0%,0%,0%,0%,2%,0%,inhibition [21]: 0%; inhibition [22]: 0%; inhibition [23]: 0%; inhibition [24]: 36%; inhibition [25]: 0%; inhibition [26]: 0%; inhibition [27]: 0%
COc1cc2nccc(Oc3ccc(NC(=O)Nc4ccc(F)cc4F)c(F)c3)c2cc1OC,0%,12%,0%,12%,5%,23%,12%,32%,0%,0%,80%,20%,21%,0%,16%,0%,71%,17%,43%,3%,inhibition [21]: 10%; inhibition [22]: 0%; inhibition [23]: 41%; inhibition [24]: 0%; inhibition [25]: 6%; inhibition [26]: 0%; inhibition [27]: 13%
NC(=O)c1sc(-c2ccsc2)cc1N,0%,0%,11%,0%,2%,0%,0%,0%,0%,0%,0%,0%,24%,0%,0%,0%,0%,0%,0%,0%,inhibition [21]: 0%; inhibition [22]: 0%; inhibition [23]: 0%; inhibition [24]: 0%; inhibition [25]: 0%; inhibition [26]: 0%; inhibition [27]: 0%
Cn1cc(C2=C(c3ccc(Cl)cc3Cl)C(=O)NC2=O)c2ccccc21,3%,0%,0%,0%,8%,0%,1%,1%,0%,21%,0%,3%,0%,0%,5%,5%,0%,0%,0%,2%,inhibition [21]: 0%; inhibition [22]: 11%; inhibition [23]: 3%; inhibition [24]: 0%; inhibition [25]: 3%; inhibition [26]: 0%; inhibition [27]: 8%
